Earlier results on 1 substance are cited in patent EP0916677A1, “METHOD FOR SEARCHING FOR PEPTIDES AND PROCESS FOR PRODUCING COMPOUNDS” (YAMANOUCHI PHARMACEUTICAL CO., LTD., priority 1996, dated 1998).

The data set deals with T1, trypsin (Bos taurus, UniProt P00760).
T1 sequence (P00760 24-246): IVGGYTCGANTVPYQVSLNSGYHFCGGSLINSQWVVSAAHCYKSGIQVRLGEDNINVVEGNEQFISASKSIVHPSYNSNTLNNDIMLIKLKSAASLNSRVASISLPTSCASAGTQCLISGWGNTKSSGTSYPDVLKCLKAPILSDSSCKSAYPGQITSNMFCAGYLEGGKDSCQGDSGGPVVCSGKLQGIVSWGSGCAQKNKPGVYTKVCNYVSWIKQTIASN
The conditions noted are these: known from Eichler et al., Biochemistry, 1993, 32, 11035.

Regarding Ac-TTKIFT-NH2 [TTKIFT, Ac-TTKIFT-NH2], the trypsin inhibitory activity result is reported as “high”.
